These results are taken from patent publication US20220395496A1 (Hoffmann-La Roche Inc., priority 2019, published 2022).

Usually IC50 stands for the concentration that gives 50% inhibition. High values mean lower potency, low ones higher potency.

In the experiment the target is T1, human TLR8 (Homo sapiens, UniProt Q9NR97).
T1 sequence (Q9NR97 27-1041): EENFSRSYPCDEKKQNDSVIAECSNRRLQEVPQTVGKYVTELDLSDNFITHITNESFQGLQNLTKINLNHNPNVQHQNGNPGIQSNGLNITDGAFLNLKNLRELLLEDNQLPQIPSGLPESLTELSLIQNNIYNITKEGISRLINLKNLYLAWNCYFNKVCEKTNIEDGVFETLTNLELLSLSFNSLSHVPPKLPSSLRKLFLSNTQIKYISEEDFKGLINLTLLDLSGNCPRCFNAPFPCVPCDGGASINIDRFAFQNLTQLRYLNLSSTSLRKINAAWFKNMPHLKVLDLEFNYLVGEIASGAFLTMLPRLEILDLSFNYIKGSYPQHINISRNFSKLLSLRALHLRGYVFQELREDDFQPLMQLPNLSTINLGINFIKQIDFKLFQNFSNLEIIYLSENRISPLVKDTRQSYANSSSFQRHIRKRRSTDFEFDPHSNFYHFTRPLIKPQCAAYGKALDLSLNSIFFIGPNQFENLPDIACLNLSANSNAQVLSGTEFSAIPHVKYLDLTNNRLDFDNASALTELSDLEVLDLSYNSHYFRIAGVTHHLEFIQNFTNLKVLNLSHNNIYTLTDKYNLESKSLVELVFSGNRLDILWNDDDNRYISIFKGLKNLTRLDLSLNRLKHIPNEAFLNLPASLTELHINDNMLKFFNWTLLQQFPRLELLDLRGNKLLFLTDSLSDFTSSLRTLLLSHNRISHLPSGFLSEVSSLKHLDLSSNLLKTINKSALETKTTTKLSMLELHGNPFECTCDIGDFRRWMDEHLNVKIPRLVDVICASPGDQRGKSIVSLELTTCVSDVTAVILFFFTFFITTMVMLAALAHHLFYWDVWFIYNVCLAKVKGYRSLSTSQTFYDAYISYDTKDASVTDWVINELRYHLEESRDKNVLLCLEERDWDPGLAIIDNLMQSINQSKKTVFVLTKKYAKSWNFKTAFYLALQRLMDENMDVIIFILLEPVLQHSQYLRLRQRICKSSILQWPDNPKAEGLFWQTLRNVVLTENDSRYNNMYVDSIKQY
Briefly: HEK293-Blue-hTLR-8 cells assay (SEAP reporter, R848 stimulation). In kind it is cell-based. The following applies: HEK293-Blue-hTLR8 cells, R848, 20 hrs; lowest tested concentration 0.0032. As for the experimental part: The following tests were carried out in order to determine the activity of the compounds of this invention in HEK293-Blue-hTLR-7/8/9 cells assay.
HEK293-Blue-hTLR-8 Cells Assay:
A stable HEK293-Blue-hTLR-8 cell line was purchased from InvivoGen (Cat. #: hkb-htlr8, San Diego, Calif., USA). These cells were originally designed for studying the stimulation of human TLR8 by monitoring the activation of NF-κB. A SEAP (secreted embryonic alkaline phosphatase) reporter gene was placed under the control of the IFN-β minimal promoter fused to five NF-κB and AP-1-binding sites. The SEAP was induced by activating NF-κB and AP-1 via stimulating HEK-Blue hTLR8 cells with TLR8 ligands. Therefore the reporter expression was declined by TLR8 antagonist under the stimulation of a ligand, such as R848, for incubation of 20 hrs. The cell culture supernatant SEAP reporter activity was determined using QUANTI-Blue™kit (Cat. #: rep-qb1, Invivogen, San Diego, Calif., USA) at a wavelength of 640 nm, a detection medium that turns purple or blue in the presence of alkaline phosphatase.
HEK293-Blue-hTLR8 cells were incubated at a density of […] cells/mL in a volume of 170 μL in a 96-well plate in Dulbecco's Modified Eagle's medium (DMEM) containing 4.5 g/L glucose, 50 U/mL penicillin, […], […], 2 mM L-glutamine, 10% (v/v) heat-inactivated fetal bovine serum with addition of 20 μL test compound in a serial dilution in the presence of final DMSO at 1% and 10 μL of 60 uM R848 in above DMEM, perform incubation under 37° C. in a CO2 incubator for 20 hrs. Then 20 μL of the supernatant from each well was incubated with 180 μL Quanti-blue substrate solution at 37° C. for 2 hrs and the absorbance was read at 620˜655 nm using a spectrophotometer. The signalling pathway that TLR8 activation leads to downstream NF-κB activation has been widely accepted, and therefore similar reporter assay was modified for evaluating TLR8 antagonist.
Consider `C[C@H]1C[C@@H](NCc2ccc3c(c2)CCNC3)CN(c2ccc(C#N)c3ncccc23)C1` [Example 11, 5-[(3S,5R)-3-methyl-5-(1,2,3,4-tetrahydroisoquinolin-6-ylmethylamino)-1-piperidyl]quinoline-8-carbonitrile], for which the IC50 is below 3.2 nM.

As for `C[C@H]1C[C@@H](NCc2ccc3c(n2)CCNC3)CN(c2ccc(C#N)c3ncccc23)C1` [Example 30, 5-[(3S,5R)-3-methyl-5-(5,6,7,8-tetrahydro-1,6-naphthyridin-2-ylmethylamino)-1-piperidyl]quinoline-8-carbonitrile], the IC50 was below 3.2 nM.

In turn, `C[C@H]1C[C@@H](NCc2ccc(N3CCN(C)CC3)cc2)CN(c2ccc(C#N)c3ncccc23)C1` [Example 7, 5-[(3S,5R)-3-methyl-5-[[4-(4-methylpiperazin-1-yl)phenyl]methylamino]-1-piperidyl]quinoline-8-carbonitrile] returned an IC50 below 3.2 nM. Take `C[C@H]1C[C@@H](NCc2ncc(N3CCNCC3)cn2)CN(c2ccc(C#N)c3ncccc23)C1` [Example 25, 5-[(3S,5R)-3-methyl-5-[(5-piperazin-1-ylpyrimidin-2-yl)methylamino]-1-piperidyl]quinoline-8-carbonitrile]: the half-inhibitory concentration (IC50) was below 3.2 nM. `C[C@H]1C[C@@H](NCc2cnc(N3CCN[C@@H](C)C3)nc2)CN(c2ccc(C#N)c3ncccc23)C1` [Example 29, 5-[(3S,5R)-3-methyl-5-[[2-[(3S)-3-methylpiperazin-1-yl]pyrimidin-5-yl]methylamino]-1-piperidyl]quinoline-8-carbonitrile] returned an IC50 below 3.2 nM. In the case of `C[C@H]1C[C@@H](NCc2cnc(N3CCNCC3)nc2)CN(c2ccc(C#N)c3ncccc23)C1` [Example 17, 5-[(3S,5R)-3-methyl-5-[(2-piperazin-1-ylpyrimidin-5-yl)methylamino]-1-piperidyl]quinoline-8-carbonitrile], the IC50 is below 3.2 nM.

Take `C[C@H]1C[C@@H](NCc2ccc(N3CCC(N)C3)cc2)CN(c2ccc(C#N)c3ncccc23)C1` (stereo partly drawn) [Example 13, 5-[(3R,5S)-3-[[4-(3-aminopyrrolidin-1-yl)phenyl]methylamino]-5-methyl-1-piperidyl]quinoline-8-carbonitrile]: it took 6 nM to reach half-maximal inhibition (IC50). `C[C@H]1C[C@@H](NCc2cnc(N3CCN[C@H](C)C3)nc2)CN(c2ccc(C#N)c3ncccc23)C1` [Example 28, 5-[(3S,5R)-3-methyl-5-[[2-[(3R)-3-methylpiperazin-1-yl]pyrimidin-5-yl]methylamino]-1-piperidyl]quinoline-8-carbonitrile] returned a half-maximal inhibitory concentration (IC50) below 3.2 nM. Take `C[C@H]1C[C@@H](NCc2ccc(N3CCNCC3)cc2)CN(c2ccc(C#N)c3nccnc23)C1` [Example 3, 8-[(3S,5R)-3-methyl-5-[(4-piperazin-1-ylphenyl)methylamino]-1-piperidyl]quinoxaline-5-carbonitrile]: half-maximal inhibition (IC50) was put at 4 nM.

For `Cc1cc(-c2ccc(CN[C@@H]3C[C@H](C)CN(c4ccc(C#N)c5ncccc45)C3)cc2)cc(C)n1` [Example 15, 5-[(3R,5S)-3-[[4-(2,6-dimethyl-4-pyridyl)phenyl]methylamino]-5-methyl-1-piperidyl]quinoline-8-carbonitrile], the IC50 amounted to 10 nM.

In turn, `C[C@H]1C[C@@H](NCc2ccc(N3CCNCC3)nc2)CN(c2ccc(C#N)c3ncccc23)C1` [Example 10] registered an IC50 below 3.2 nM. `C[C@H]1C[C@@H](N(C)Cc2ccc(N3CCNCC3)cc2)CN(c2ccc(C#N)c3ncccc23)C1` [Example 9, 5-[(3S,5R)-3-methyl-5-[methyl-[(4-piperazin-1-ylphenyl)methyl]amino]-1-piperidyl]quinoline-8-carbonitrile] registered an IC50 of 5 nM. As for `C[C@H]1C[C@@H](N2Cc3ccc(N4CCNCC4)cc3C2)CN(c2ccc(C#N)c3ncccc23)C1` [Example 12, 5-[(3S,5R)-3-methyl-5-(5-piperazin-1-ylisoindolin-2-yl)-1-piperidyl]quinoline-8-carbonitrile], the IC50 was below 3.2 nM. With `C[C@H]1C[C@@H](NCc2ccc(N3CCNCC3)cc2)CN(c2ccc(Cl)c3ncccc23)C1` [Example 22, (3R,5S)-1-(8-chloro-5-quinolyl)-5-methyl-N-[(4-piperazin-1-ylphenyl)methyl]piperidin-3-amine], the IC50 amounted to 5 nM. Compound `C[C@H]1C[C@@H](N2Cc3ccccc3C2)CN(c2ccc(C#N)c3ncccc23)C1` [Example R2, reference compound] registered a half-maximal inhibitory concentration (IC50) of 110 nM. Turning to `C[C@H]1C[C@@H](NCc2ccc(C3CCNCC3)cc2)CN(c2ccc(C#N)c3ncccc23)C1` [Example 2, 5-[(3S,5R)-3-methyl-5-[[4-(4-piperidyl)phenyl]methylamino]-1-piperidyl]quinoline-8-carbonitrile], the 50% inhibitory concentration (IC50) worked out at 6 nM.

`C[C@H]1C[C@@H](NCc2ccc(N3CCN(C)CC3)cn2)CN(c2ccc(C#N)c3ncsc23)C1` [Example 18, 7-[(3S,5R)-3-methyl-5-[[5-(4-methylpiperazin-1-yl)-2-pyridyl]methylamino]-1-piperidyl]-1,3-benzothiazole-4-carbonitrile] gave a 50% inhibitory concentration (IC50) below 3.2 nM. For the compound `C[C@H]1C[C@@H](NCc2cnc(N3CCNCC3)cn2)CN(c2ccc(C#N)c3ncccc23)C1` [Example 31, 5-[(3S,5R)-3-methyl-5-[(5-piperazin-1-ylpyrazin-2-yl)methylamino]-1-piperidyl]quinoline-8-carbonitrile], the IC50 is below 3.2 nM. For the compound `C[C@H]1C[C@@H](N2CCc3cc(N4CCNCC4)ccc3C2)CN(c2ccc(C#N)c3ncccc23)C1` (relative stereo) [Example 24, 5-[cis-3-methyl-5-(6-piperazin-1-yl-3,4-dihydro-1H-isoquinolin-2-yl)-1-piperidyl]quinoline-8-carbonitrile], the half-inhibitory concentration (IC50) is below 3.2 nM.

The compound `CC(N[C@@H]1C[C@H](C)CN(c2ccc(C#N)c3ncccc23)C1)c1ccc(N2CCNCC2)cc1` (stereo partly drawn) [Example 26, 5-[(3S,5R)-3-methyl-5-[1-(4-piperazin-1-ylphenyl)ethylamino]-1-piperidyl]quinoline-8-carbonitrile] came in with an IC50 of at most 3 nM. Regarding `C[C@H]1C[C@@H](NCc2ccc(N3CCNCC3)cn2)CN(c2ccc(C#N)c3ncccc23)C1` [Example 5, 5-[(3S,5R)-3-methyl-5-[(5-piperazin-1-yl-2-pyridyl)methylamino]-1-piperidyl]quinoline-8-carbonitrile], it took 6 nM to reach half-maximal inhibition (IC50). Take `C[C@H]1C[C@@H](NCc2cccc(N3CCNCC3)c2)CN(c2ccc(C#N)c3ncccc23)C1` [Example 8, 5-[(3S,5R)-3-methyl-5-[(3-piperazin-1-ylphenyl)methylamino]-1-piperidyl]quinoline-8-carbonitrile]: the IC50 amounted to 9 nM. In turn, `C[C@H]1C[C@@H](NCc2ccc(N3CCNCC3)cc2)CN(c2ccc(C#N)n3nccc23)C1` [Example 21, 4-[(3S,5R)-3-methyl-5-[(4-piperazin-1-ylphenyl)methylamino]-1-piperidyl]pyrazolo[1,5-a]pyridine-7-carbonitrile] returned an IC50 of 42 nM. The figure for `C[C@H]1C[C@@H](NCc2cccc(N3CCN(C)CC3)c2)CN(c2ccc(C#N)c3ncccc23)C1` [Example 6, 5-[(3S,5R)-3-methyl-5-[[3-(4-methylpiperazin-1-yl)phenyl]methylamino]-1-piperidyl]quinoline-8-carbonitrile] is 4 nM.
